Data from patent US11634404B2 (priority 2016, dated 2023).

Assays:
Format in all cases: cell-based
panel of 168 GPCRs [1] = target: panel of 168 GPCRs (Homo sapiens, UniProt Q5NUL3); conditions: GPCR GPR120; agonist, 10 μM
panel of 168 GPCRs [2] = target: panel of 168 GPCRs (Homo sapiens, UniProt Q9NSD7); conditions: GPCR RXFP3; agonist, 10 μM
panel of 168 GPCRs [3] = target: panel of 168 GPCRs (Homo sapiens, UniProt Q96RI0); conditions: GPCR F2RL3; agonist, 10 μM
panel of 168 GPCRs [4] = target: panel of 168 GPCRs (Homo sapiens, UniProt Q03431); conditions: GPCR PTHR1; agonist, 10 μM
panel of 168 GPCRs [5] = target: panel of 168 GPCRs (Homo sapiens, UniProt Q99500); conditions: GPCR EDG3; agonist, 10 μM
panel of 168 GPCRs [6] = target: panel of 168 GPCRs (Homo sapiens, UniProt P35372); conditions: GPCR OPRM1; agonist, 10 μM
panel of 168 GPCRs [7] = target: panel of 168 GPCRs (Homo sapiens, UniProt P43115); conditions: GPCR PTGER3; agonist, 10 μM
panel of 168 GPCRs [8] = target: panel of 168 GPCRs (Homo sapiens, UniProt P20309); conditions: GPCR CHRM3; agonist, 10 μM
panel of 168 GPCRs [9] = target: panel of 168 GPCRs (Homo sapiens, UniProt O00574); conditions: GPCR CXCR6; agonist, 10 μM
panel of 168 GPCRs [10] = target: panel of 168 GPCRs (Homo sapiens, UniProt O95977); conditions: GPCR EDG6; agonist, 10 μM
panel of 168 GPCRs [11] = target: panel of 168 GPCRs (Homo sapiens, UniProt P23945); conditions: GPCR FSHR; agonist, 10 μM
panel of 168 GPCRs [12] = target: panel of 168 GPCRs (Homo sapiens, UniProt Q9P296); conditions: GPCR C5L2; agonist, 10 μM
panel of 168 GPCRs [13] = target: panel of 168 GPCRs (Homo sapiens, UniProt Q9H3N8); conditions: GPCR HRH4; agonist, 10 μM
panel of 168 GPCRs [14] = target: panel of 168 GPCRs (Homo sapiens, UniProt P48146); conditions: GPCR NPBWR2; agonist, 10 μM
panel of 168 GPCRs [15] = target: panel of 168 GPCRs (Homo sapiens, UniProt P28223); conditions: GPCR HTR2A; agonist, 10 μM
panel of 168 GPCRs [16] = target: panel of 168 GPCRs (Homo sapiens, UniProt P51684); conditions: GPCR CCR6; agonist, 10 μM
panel of 168 GPCRs [17] = target: panel of 168 GPCRs (Homo sapiens, UniProt P47898); conditions: GPCR HTR5A; agonist, 10 μM
panel of 168 GPCRs [18] = target: panel of 168 GPCRs (Homo sapiens, UniProt P35408); conditions: GPCR PTGER4; agonist, 10 μM
panel of 168 GPCRs [19] = target: panel of 168 GPCRs (Homo sapiens, UniProt Q96P65); conditions: GPCR GPR103; agonist, 10 μM
panel of 168 GPCRs [20] = target: panel of 168 GPCRs (Homo sapiens, UniProt P25106); conditions: GPCR CXCR7; agonist, 10 μM
panel of 168 GPCRs [21] = target: panel of 168 GPCRs (Homo sapiens, UniProt Q92847); conditions: GPCR GHSR; agonist, 10 μM
panel of 168 GPCRs [22] = target: panel of 168 GPCRs (Homo sapiens, UniProt P28335); conditions: GPCR HTR2C; agonist, 10 μM
panel of 168 GPCRs [23] = target: panel of 168 GPCRs (Homo sapiens, UniProt P47211); conditions: GPCR GALR1; agonist, 10 μM
panel of 168 GPCRs [24] = target: panel of 168 GPCRs (Homo sapiens, UniProt P49238); conditions: GPCR CX3CR1; agonist, 10 μM
panel of 168 GPCRs [25] = target: panel of 168 GPCRs (Homo sapiens, UniProt P25025); conditions: GPCR CXCR2; agonist, 10 μM
panel of 168 GPCRs [26] = target: panel of 168 GPCRs (Homo sapiens, UniProt P32249); conditions: GPCR EBI2; agonist, 10 μM
panel of 168 GPCRs [27] = target: panel of 168 GPCRs (Homo sapiens, UniProt P08173); conditions: GPCR CHRM4; agonist, 10 μM
panel of 168 GPCRs [28] = target: panel of 168 GPCRs (Homo sapiens, UniProt Q9UBY5); conditions: GPCR EDG7; agonist, 10 μM
panel of 168 GPCRs [29] = target: panel of 168 GPCRs (Homo sapiens, UniProt P21730); conditions: GPCR C5AR1; agonist, 10 μM
panel of 168 GPCRs [30] = target: panel of 168 GPCRs (Homo sapiens, UniProt P30550); conditions: GPCR GRPR; agonist, 10 μM
panel of 168 GPCRs [31] = target: panel of 168 GPCRs (Homo sapiens, UniProt Q99788); conditions: GPCR CMKLR1; agonist, 10 μM
panel of 168 GPCRs [32] = target: panel of 168 GPCRs (Homo sapiens, UniProt P28566); conditions: GPCR HTR1E; agonist, 10 μM

Sequence of panel of 168 GPCRs (Homo sapiens, UniProt Q03431) (Q03431 27-593 limits assumed): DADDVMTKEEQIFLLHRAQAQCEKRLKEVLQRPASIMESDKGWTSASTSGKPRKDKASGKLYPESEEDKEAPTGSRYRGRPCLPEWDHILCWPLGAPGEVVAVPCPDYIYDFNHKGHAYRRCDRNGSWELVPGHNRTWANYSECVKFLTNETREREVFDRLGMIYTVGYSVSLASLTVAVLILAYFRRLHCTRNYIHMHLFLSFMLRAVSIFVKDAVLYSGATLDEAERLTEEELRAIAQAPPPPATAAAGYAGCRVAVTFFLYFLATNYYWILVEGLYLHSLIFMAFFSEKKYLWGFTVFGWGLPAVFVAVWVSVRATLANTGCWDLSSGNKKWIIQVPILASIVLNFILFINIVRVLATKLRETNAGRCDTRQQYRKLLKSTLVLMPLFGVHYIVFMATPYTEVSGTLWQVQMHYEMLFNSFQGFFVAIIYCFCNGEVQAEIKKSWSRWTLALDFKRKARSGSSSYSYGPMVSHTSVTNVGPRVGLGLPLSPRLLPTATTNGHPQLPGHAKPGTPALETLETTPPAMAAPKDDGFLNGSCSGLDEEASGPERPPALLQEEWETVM
Sequence of panel of 168 GPCRs (Homo sapiens, UniProt Q96RI0) (Q96RI0 18-385 limits assumed): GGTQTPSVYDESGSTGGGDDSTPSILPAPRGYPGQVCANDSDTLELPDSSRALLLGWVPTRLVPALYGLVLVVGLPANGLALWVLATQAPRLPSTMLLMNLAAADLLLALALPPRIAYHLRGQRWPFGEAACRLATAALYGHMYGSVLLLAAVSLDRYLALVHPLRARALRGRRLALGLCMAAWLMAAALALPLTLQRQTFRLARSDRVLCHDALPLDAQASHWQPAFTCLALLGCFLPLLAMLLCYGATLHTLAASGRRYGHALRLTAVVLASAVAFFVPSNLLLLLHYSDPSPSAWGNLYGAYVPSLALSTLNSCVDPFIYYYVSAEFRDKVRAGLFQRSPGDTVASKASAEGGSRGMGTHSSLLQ
Sequence of panel of 168 GPCRs (Homo sapiens, UniProt P23945) (P23945 18-695 limits assumed): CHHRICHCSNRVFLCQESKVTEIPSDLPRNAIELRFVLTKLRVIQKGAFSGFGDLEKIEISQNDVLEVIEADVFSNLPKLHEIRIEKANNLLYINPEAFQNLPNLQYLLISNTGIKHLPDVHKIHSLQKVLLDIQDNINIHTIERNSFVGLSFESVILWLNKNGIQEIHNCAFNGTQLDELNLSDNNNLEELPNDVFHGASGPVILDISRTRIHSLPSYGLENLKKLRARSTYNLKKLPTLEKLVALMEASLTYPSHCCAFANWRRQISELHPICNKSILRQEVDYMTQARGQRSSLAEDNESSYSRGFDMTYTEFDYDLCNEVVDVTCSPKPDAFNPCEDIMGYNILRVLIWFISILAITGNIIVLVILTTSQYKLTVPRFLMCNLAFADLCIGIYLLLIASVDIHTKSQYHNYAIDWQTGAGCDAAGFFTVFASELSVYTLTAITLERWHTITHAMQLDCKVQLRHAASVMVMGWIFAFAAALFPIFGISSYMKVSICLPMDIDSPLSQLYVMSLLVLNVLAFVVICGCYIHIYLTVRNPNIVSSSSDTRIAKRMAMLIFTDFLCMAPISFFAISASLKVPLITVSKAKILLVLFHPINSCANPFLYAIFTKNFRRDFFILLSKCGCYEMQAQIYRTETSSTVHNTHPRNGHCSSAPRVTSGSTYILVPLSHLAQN
Sequence of panel of 168 GPCRs (Homo sapiens, UniProt P28335) (P28335 33-458 limits assumed): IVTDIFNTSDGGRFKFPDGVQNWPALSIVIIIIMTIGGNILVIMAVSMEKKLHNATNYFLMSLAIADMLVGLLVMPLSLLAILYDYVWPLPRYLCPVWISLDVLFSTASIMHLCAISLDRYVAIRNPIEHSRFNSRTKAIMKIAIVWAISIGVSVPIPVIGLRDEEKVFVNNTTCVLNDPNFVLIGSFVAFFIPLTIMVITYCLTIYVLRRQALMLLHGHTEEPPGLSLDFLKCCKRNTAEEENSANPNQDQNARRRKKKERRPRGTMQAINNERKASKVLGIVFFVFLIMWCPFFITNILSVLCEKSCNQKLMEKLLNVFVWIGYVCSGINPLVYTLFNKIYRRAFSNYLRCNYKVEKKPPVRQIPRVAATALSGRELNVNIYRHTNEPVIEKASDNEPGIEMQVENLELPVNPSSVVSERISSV

SMILES: COc1ccc(OCCN2CCN(C(=O)c3cc4ccccc4[nH]3)CC2)cc1 [Compound 1, (1H-indol-2-yl)(4-(2-(4-methoxyphenoxy)ethyl)piperazin-1-yl)methanone]
- β-Arrestin Recruitment activity (panel of 168 GPCRs [1]): 12%
- β-Arrestin Recruitment activity (panel of 168 GPCRs [2]): 5%
- β-Arrestin Recruitment activity (panel of 168 GPCRs [3]): 4%
- β-Arrestin Recruitment activity (panel of 168 GPCRs [4]): 0%
- β-Arrestin Recruitment activity (panel of 168 GPCRs [5]): 4%
- β-Arrestin Recruitment activity (panel of 168 GPCRs [6]): 0%
- β-Arrestin Recruitment activity (panel of 168 GPCRs [7]): 3%
- β-Arrestin Recruitment activity (panel of 168 GPCRs [8]): 0%
- β-Arrestin Recruitment activity (panel of 168 GPCRs [9]): 8%
- β-Arrestin Recruitment activity (panel of 168 GPCRs [10]): 17%
- β-Arrestin Recruitment activity (panel of 168 GPCRs [11]): 5%
- β-Arrestin Recruitment activity (panel of 168 GPCRs [12]): 6%
- β-Arrestin Recruitment activity (panel of 168 GPCRs [13]): 8%
- β-Arrestin Recruitment activity (panel of 168 GPCRs [14]): 3%
- β-Arrestin Recruitment activity (panel of 168 GPCRs [15]): 4%
- β-Arrestin Recruitment activity (panel of 168 GPCRs [16]): 0%
- β-Arrestin Recruitment activity (panel of 168 GPCRs [17]): 3%
- β-Arrestin Recruitment activity (panel of 168 GPCRs [18]): 6%
- β-Arrestin Recruitment activity (panel of 168 GPCRs [19]): −9%
- β-Arrestin Recruitment activity (panel of 168 GPCRs [20]): 3%
- β-Arrestin Recruitment activity (panel of 168 GPCRs [21]): −3%
- β-Arrestin Recruitment activity (panel of 168 GPCRs [22]): 6%
- β-Arrestin Recruitment activity (panel of 168 GPCRs [23]): 4%
- β-Arrestin Recruitment activity (panel of 168 GPCRs [24]): 0%
- β-Arrestin Recruitment activity (panel of 168 GPCRs [25]): 6%
- β-Arrestin Recruitment activity (panel of 168 GPCRs [26]): 0%
- β-Arrestin Recruitment activity (panel of 168 GPCRs [27]): 3%
- β-Arrestin Recruitment activity (panel of 168 GPCRs [28]): 6%
- β-Arrestin Recruitment activity (panel of 168 GPCRs [29]): 0%
- β-Arrestin Recruitment activity (panel of 168 GPCRs [30]): 0%
- β-Arrestin Recruitment activity (panel of 168 GPCRs [31]): 0%
- β-Arrestin Recruitment activity (panel of 168 GPCRs [32]): 4%
